Measurements published in patent US4500544A, “Ascochlorin derivatives, and pharmaceutical composition containing the same” (Chugai Seiyaku Kabushiki Kaisha, priority 1981, dated 1985).

Legend:
[1] = systemic or oral administration; cited from earlier work
[2] = background; cited from earlier work
[3] = background; cited from earlier work; remark: listed apart in the source
[4] = tested on: circulatory system of mammals; details: background; cited from earlier work
Ehrlich ascites tumor = experiment: life span of mice with Ehrlich ascites tumor (Example 22); type: in vivo, ddY male mice; details: 2 mg i.p. once a day for 7 days
Description: 10^6 Cells of Ehrlich ascites tumor were transplanted in five-week-old ddY male mice and from the 24th hour onward, they were injected intraperitoneally the compounds indicated in Table 4 of the present invention once a day for 7 consecutive days. Each injection contained 2 mg of the test compounds. The efficacy of the compounds is indicated in Table 4 in terms of their life span.

[5] = tested on: adipocytes of streptozotocin-diabetic rats; experiment: adipocytes from orally treated streptozotocin-diabetic rats; type: in vivo; details: oral once daily for 2 weeks
Description: The mechanism of action of the compounds of the present invention was evaluated using adipocytes derived from diabetic animals which orally received the compounds for a given period.

[6] = tested on: hepatic lipogenesis in streptozotocin-diabetic mice; experiment: hepatic lipogenesis in streptozotocin-diabetic mice; type: in vivo; details: oral, a week; untreated diabetic controls one half of normal
Source text: Potentiation of insulin action by the compounds of the present invention is corroborated by restoration of hepatic lipogenesis in streptozotocin-diabetic mice. Streptozotocin diabetic mice greatly deteriolate hepatic lipogenesis due to insulin deficiency.

[7] = plasma glucose and cholesterol in normal mice fed the compounds (Example 19); type: in vivo, ddY male mice; details: 0.1% in diet, one week, n=10
Description: Five-week-old ddY male mice (n=10) were given for one week a diet (CE-2 from Nippon Crea Co., Ltd.) containing 0.1% of the sample compounds of the present invention indicated in Table 1. Blood was then withdrawn from the heart and the glucose and cholesterol levels in plasma were measured.

[8] = tested on: Hereditary obese diabetic mice C 57BL/Ksj (db^+ /db^+); experiment: hereditary obese diabetic mice, diet with 0.1% compound (Example 20); type: in vivo, mouse
Description: The amounts of the diet taken drinking water, urine volume and urine glucose excreted were measured daily. The results are indicated in Table 2 in terms of mean value±standard error.

[9] = tested on: adipocytes of hereditary obese diabetic mouse, strain C 57BL/KsJ (db^+ /db^+); experiment: adipocytes from orally treated hereditary obese diabetic mice; type: in vivo; details: oral, 1 week
Source text: The hereditary obese diabetic mouse, strain C 57BL/KsJ (db^+ /db^+), is an excellent model of human type II diabetes mellitus.

L-1210 leukemia = experiment: prevention of L-1210 leukemia by pretreatment one week before transplantation (Example 23); type: in vivo, BDF1 female mice; details: 2 mg i.p. one week before 10^2 cells
Description: Four-week-old BDF1 female mice were injected intraperitoneally with suspensions of 2 mg of 4-O-hydroxycarbonylmethyl ester of ascochlorin in 1% tragacanth gum. A control group was injected only with 1% tragacanth gum. One week later, 10^2 cells of L-1210 leukemia were transplanted in the mice.

[10] = vs one week prior to administration

For `COc1c(Cl)c(C)c(C=O)c(O)c1C/C=C(C)/C=C/C1(C)C(C)CCC(=O)C1C` (stereo not drawn), the level in blood [1] is given as “not easily increased even if it is administered systemically or orally” and the water solubility [2] is given as “low in water solubility”.
In the case of `CC(/C=C/[C@@]1(C)[C@H](C)CCC(=O)[C@@H]1C)=C\Cc1c(O)c(Cl)c(C)c(C=O)c1O` [Ascochlorin], the “anti-viral and anti-tumor effects” value [3] is listed as “high anti-viral and anti-tumor effects” and the “toxicity to the circulatory system” value [4] is listed as “highly toxic to the circulatory system of mammals”.
For `CC(/C=C/C1(C)C(C)CCC(=O)C1C)=C\Cc1c(O)c(C=O)c(C)c(Cl)c1OCC(=O)O` (stereo not drawn) [Example 4, 4-O-carboxymethyl ascochlorin], the Days survived (Ehrlich ascites tumor; n=8, control 15.5 ± 2.12) was over 25.3 ± 4.65 days, the “T/0 (%)” value (Ehrlich ascites tumor; control 100) was 163% and the “2-deoxyglucose uptake, and conversion of glucose to carbon dioxide and lipids in adipocytes” value [5] was “greatly increased”. For the same molecule, the “^125 I-insulin binding to adipocytes” value ([5]; vs normal and diabetic control) was “increased ^125 I-insulin binding to adipocytes above normal and diabetic control levels”, the “incorporation of acetate into hepatic total fatty acid and triglyceride” value [6] was “restored to normal control levels” and the “total cholesterol in plasma” value ([7]; control 135.9 ± 4.8) was 107.9 ± 4.5 mg/dL. For the same molecule, the plasma glucose ([7]; control 271.6 ± 0.4) was 217.6 ± 12.2 mg/dL, the urine volume ([8]; 0.1% in diet, one week administration, prior 5.95 ± 0.20, n=10) was 2.07 ± 0.23 ml/mouse/day and the diet intake ([8]; 0.1% in diet, one week administration, prior 6.35 ± 0.13, n=10) was 6.37 ± 0.28 g/mouse/day. The drinking water ([8]; 0.1% in diet, one week administration, prior 14.7 ± 0.3, n=10) was 10.4 ± 0.3 ml/mouse/day, the urine glucose concentration ([8]; 0.1% in diet, one week administration, prior 97.4 ± 3.4, n=10) was 52.9 ± 5.52 mg/mL and the urine glucose ([8]; 0.1% in diet, one week administration, prior 579.5 ± 21.1, n=10) was 106.8 ± 19.5 mg/mouse/day. For the same molecule, the “drinking water, change” value [8, 10] was -29.3%, the “urine glucose concentration, change” value [8, 10] was -45.7% and the “urine glucose, change” value [8, 10] was -81.5%. For the same molecule, the “urine volume, change” value [8, 10] was -65.2%, the “2-deoxyglucose uptake, and conversion of glucose to carbon dioxide and lipid” value [9] was “increased” and the “increment in ^125 I-insulin binding to adipocytes” value ([9]; above age-matched untreated diabetic controls) was 1.5-3.0 fold. The “Survived 50 days or more” value (L-1210 leukemia; control 0, P < 0.01) was 7 and the Died (L-1210 leukemia; control 20 died) was 13.
